According to the supplement of paper PMC8617591:

Columns and labels:
[1] = system: Mycobacterium tuberculosis Erdman (autoluminescent); assay: AUC25, normalised area under dose response up to IC25 (three-drug combination) (fraction (0-1)); higher = more potent at low dose
Method: (§1)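 DiaMOND equipotent three-drug combination dose responses (10 doses, 1.5- or 2-fold spacing, centred on IC90) against autoluminescent M. tuberculosis Erdman in 8 in vitro models. Read-out is OD600, or luminescence for the intracellular and dormancy models, normalised to untreated wells. Hill-fit Einf, AUC25 and GRinf are potency metrics; FIC50 and FIC90 are total Loewe fractional inhibitory concentrations as log2 (negative = synergy).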

[2] = system: Mycobacterium tuberculosis Erdman (autoluminescent); assay: total FIC90 (Loewe) at 90% inhibition, three-drug combination (log2); higher = more antagonistic
Method: as §1

[3] = system: Mycobacterium tuberculosis Erdman (autoluminescent); assay: Einf, fitted maximum growth inhibition of three-drug combination (fraction); higher = stronger maximal inhibition
Method: as §1

[4] = system: Mycobacterium tuberculosis Erdman (autoluminescent); assay: GRinf, maximum normalised growth rate inhibition (three-drug combination) (unitless (-1 to 1)); higher = less effect (negative = killing)
Method: as §1

[5] = system: Mycobacterium tuberculosis Erdman (autoluminescent); assay: total FIC50 (Loewe) at 50% inhibition, three-drug combination (log2); higher = more antagonistic
Method: as §1

[6] = in vitro model: acidic pH 5.7, time point: constant (~7 days, model-specific)
[7] = in vitro model: acidic pH 5.7, time point: terminal (~4-5 doublings, model-specific)
[8] = in vitro model: butyrate, time point: constant (~7 days, model-specific)
[9] = in vitro model: butyrate, time point: terminal (~4-5 doublings, model-specific)
[10] = in vitro model: cholesterol 0.05 mM, time point: constant (~7 days, model-specific)
[11] = in vitro model: cholesterol 0.05 mM, time point: terminal (~4-5 doublings, model-specific)
[12] = in vitro model: cholesterol-high 0.2 mM, time point: constant (~7 days, model-specific)
[13] = in vitro model: cholesterol-high 0.2 mM, time point: terminal (~4-5 doublings, model-specific)
[14] = in vitro model: dormancy (butyrate + nitrate, low O2), time point: constant (~7 days, model-specific)
[15] = in vitro model: dormancy (butyrate + nitrate, low O2), time point: terminal (~4-5 doublings, model-specific)
[16] = in vitro model: standard 7H9 glycerol, time point: constant = terminal
[17] = in vitro model: valerate, time point: constant (~7 days, model-specific)
[18] = in vitro model: valerate, time point: terminal (~4-5 doublings, model-specific)
[19] = in vitro model: intracellular J774, time point: constant = terminal

## COc1nc2ccc(Br)cc2cc1[C@@H](c1ccccc1)[C@@](O)(CCN(C)C)c1cccc2ccccc12 [bedaquiline] + CC[C@@H](CO)NCCN[C@@H](CC)CO [ethambutol] + CO[C@H]1/C=C/O[C@@]2(C)Oc3c(C)c(O)c4c(O)c(c(/C=N/N5CCN(C)CC5)c(O)c4c3C2=O)NC(=O)/C(C)=C\C=C\[C@H](C)[C@H](O)[C@@H](C)[C@@H](O)[C@@H](C)[C@H](OC(C)=O)[C@@H]1C [rifampicin]
[1]; [6]
  AUC25: 0.101
[1]; [7]
  AUC25: 0.0469
[1]; [8]
  AUC25: 0.0854
[1]; [9]
  AUC25: 0.0653
[1]; [10]
  AUC25: 0.0934
[1]; [11]
  AUC25: 0.0802
[1]; [12]
  AUC25: 0.0442
[1]; [13]
  AUC25: 0.0471
[1]; [14]
  AUC25: 0.0847
[1]; [15]
  AUC25: 0.0367
[1]; [16]
  AUC25: 0.0718
[1]; [17]
  AUC25: 0.0696
[1]; [18]
  AUC25: 0.0304
[2]; [7]
  total FIC90: -0.353
[2]; [9]
  total FIC90: -0.34
[2]; [13]
  total FIC90: 0.577
[2]; [15]
  total FIC90: -0.773
[2]; [19]
  total FIC90: -2.17
[2]; [18]
  total FIC90: -0.531
[3]; [6]
  Einf: 0.925
[3]; [7]
  Einf: 0.975
[3]; [8]
  Einf: 0.947
[3]; [9]
  Einf: 0.977
[3]; [10]
  Einf: 0.696
[3]; [11]
  Einf: 0.866
[3]; [12]
  Einf: 0.972
[3]; [13]
  Einf: 0.999
[3]; [14]
  Einf: 0.848
[3]; [15]
  Einf: 0.985
[3]; [19]
  Einf: 0.946
[3]; [16]
  Einf: 0.936
[3]; [17]
  Einf: 0.904
[3]; [18]
  Einf: 0.944
[4]; [6]
  GRinf: -0.517
[4]; [7]
  GRinf: -0.16
[4]; [8]
  GRinf: -0.116
[4]; [9]
  GRinf: -0.0944
[4]; [10]
  GRinf: -0.186
[4]; [11]
  GRinf: -0.177
[4]; [12]
  GRinf: -0.609
[4]; [13]
  GRinf: -0.732
[4]; [14]
  GRinf: 0.506
[4]; [15]
  GRinf: -0.0366
[4]; [19]
  GRinf: -0.188
[4]; [16]
  GRinf: -0.0564
[4]; [17]
  GRinf: -0.043
[4]; [18]
  GRinf: -0.0659
[5]; [6]
  total FIC50: 0.255
[5]; [7]
  total FIC50: 0.433
[5]; [8]
  total FIC50: 0.298
[5]; [9]
  total FIC50: 0.293
[5]; [10]
  total FIC50: 0.99
[5]; [11]
  total FIC50: 0.757
[5]; [12]
  total FIC50: 0.869
[5]; [13]
  total FIC50: 0.649
[5]; [14]
  total FIC50: 0.302
[5]; [15]
  total FIC50: 0.467
[5]; [16]
  total FIC50: 0.162
[5]; [17]
  total FIC50: 0.575
[5]; [18]
  total FIC50: 0.707

## COc1nc2ccc(Br)cc2cc1[C@@H](c1ccccc1)[C@@](O)(CCN(C)C)c1cccc2ccccc12 [bedaquiline] + CC[C@@H](CO)NCCN[C@@H](CC)CO [ethambutol] + COc1c(N2C[C@@H]3CCCN[C@@H]3C2)c(F)cc2c(=O)c(C(=O)O)cn(C3CC3)c12 [moxifloxacin]
[1]; [6]
  AUC25: 0.0871
[1]; [7]
  AUC25: 0.0798
[1]; [8]
  AUC25: 0.0669
[1]; [9]
  AUC25: 0.0565
[1]; [10]
  AUC25: 0.0787
[1]; [11]
  AUC25: 0.0645
[1]; [12]
  AUC25: 0.0262
[1]; [13]
  AUC25: 0.0315
[1]; [14]
  AUC25: 0.14
[1]; [15]
  AUC25: 0.114
[1]; [16]
  AUC25: 0.0556
[1]; [17]
  AUC25: 0.0922
[1]; [18]
  AUC25: 0.0526
[2]; [7]
  total FIC90: 0.318
[2]; [9]
  total FIC90: 0.135
[2]; [11]
  total FIC90: 0.517
[2]; [13]
  total FIC90: 1.07
[2]; [15]
  total FIC90: 0.644
[2]; [19]
  total FIC90: -0.597
[2]; [16]
  total FIC90: 0.479
[2]; [18]
  total FIC90: 0.289
[3]; [6]
  Einf: 0.818
[3]; [7]
  Einf: 0.968
[3]; [8]
  Einf: 0.943
[3]; [9]
  Einf: 0.976
[3]; [10]
  Einf: 0.746
[3]; [11]
  Einf: 0.902
[3]; [12]
  Einf: 0.947
[3]; [13]
  Einf: 1
[3]; [14]
  Einf: 0.884
[3]; [15]
  Einf: 0.987
[3]; [19]
  Einf: 0.951
[3]; [16]
  Einf: 0.955
[3]; [17]
  Einf: 0.906
[3]; [18]
  Einf: 0.939
[4]; [6]
  GRinf: -0.484
[4]; [7]
  GRinf: -0.239
[4]; [8]
  GRinf: -0.107
[4]; [9]
  GRinf: -0.091
[4]; [10]
  GRinf: -0.304
[4]; [11]
  GRinf: -0.132
[4]; [12]
  GRinf: -0.654
[4]; [13]
  GRinf: -0.729
[4]; [14]
  GRinf: 0.39
[4]; [15]
  GRinf: -0.126
[4]; [19]
  GRinf: -0.177
[4]; [16]
  GRinf: -0.0832
[4]; [17]
  GRinf: -0.0299
[4]; [18]
  GRinf: -0.0195
[5]; [6]
  total FIC50: 0.542
[5]; [7]
  total FIC50: 0.896
[5]; [8]
  total FIC50: 0.634
[5]; [9]
  total FIC50: 0.608
[5]; [10]
  total FIC50: 0.605
[5]; [11]
  total FIC50: 1.36
[5]; [12]
  total FIC50: 1.13
[5]; [13]
  total FIC50: 1.33
[5]; [14]
  total FIC50: 1.02
[5]; [15]
  total FIC50: 0.343
[5]; [16]
  total FIC50: 0.482
[5]; [17]
  total FIC50: 0.726
[5]; [18]
  total FIC50: 0.757

## COc1nc2ccc(Br)cc2cc1[C@@H](c1ccccc1)[C@@](O)(CCN(C)C)c1cccc2ccccc12 [bedaquiline] + CC[C@@H](CO)NCCN[C@@H](CC)CO [ethambutol] + NC(=O)c1cnccn1 [pyrazinamide]
[1]; [6]
  AUC25: 0.0897
[1]; [7]
  AUC25: 0.0657
[1]; [8]
  AUC25: 0.0804
[1]; [9]
  AUC25: 0.0692
[1]; [10]
  AUC25: 0.0893
[1]; [11]
  AUC25: 0.113
[1]; [12]
  AUC25: 0.0376
[1]; [13]
  AUC25: 0.0549
[1]; [14]
  AUC25: 0.11
[1]; [15]
  AUC25: 0.106
[1]; [16]
  AUC25: 0.0685
[1]; [17]
  AUC25: 0.0945
[1]; [18]
  AUC25: 0.0602
[2]; [7]
  total FIC90: -0.299
[2]; [9]
  total FIC90: -0.0291
[2]; [13]
  total FIC90: 1.04
[2]; [15]
  total FIC90: 0.729
[2]; [19]
  total FIC90: -0.0128
[2]; [18]
  total FIC90: -0.297
[3]; [6]
  Einf: 0.873
[3]; [7]
  Einf: 0.97
[3]; [8]
  Einf: 0.958
[3]; [9]
  Einf: 0.98
[3]; [10]
  Einf: 0.735
[3]; [11]
  Einf: 0.942
[3]; [12]
  Einf: 0.954
[3]; [13]
  Einf: 1
[3]; [14]
  Einf: 0.818
[3]; [15]
  Einf: 0.99
[3]; [19]
  Einf: 0.975
[3]; [16]
  Einf: 0.924
[3]; [17]
  Einf: 0.901
[3]; [18]
  Einf: 0.954
[4]; [6]
  GRinf: -0.571
[4]; [7]
  GRinf: -0.4
[4]; [8]
  GRinf: -0.23
[4]; [9]
  GRinf: -0.518
[4]; [10]
  GRinf: -0.275
[4]; [11]
  GRinf: -0.531
[4]; [12]
  GRinf: -0.425
[4]; [13]
  GRinf: -0.723
[4]; [14]
  GRinf: 0.489
[4]; [15]
  GRinf: -0.119
[4]; [19]
  GRinf: -0.486
[4]; [16]
  GRinf: 0.0247
[4]; [17]
  GRinf: -0.0908
[4]; [18]
  GRinf: -0.0443
[5]; [6]
  total FIC50: -0.0886
[5]; [7]
  total FIC50: 0.412
[5]; [8]
  total FIC50: 0.369
[5]; [9]
  total FIC50: 0.327
[5]; [11]
  total FIC50: 1.2
[5]; [12]
  total FIC50: 1.15
[5]; [13]
  total FIC50: 1
[5]; [14]
  total FIC50: 0.665
[5]; [15]
  total FIC50: 0.467
[5]; [16]
  total FIC50: 0.382
[5]; [17]
  total FIC50: 0.734
[5]; [18]
  total FIC50: 0.806
